Experimental data published in patent US6525001B1, “Substituted pyrimidine and pyridine herbicides” (Mid-American Commercialization Corporation, priority 1997, dated 2003).

How the values were obtained:
Assay in all cases: Test E pre-/postemergence/post directed
Assay type in all cases: in vivo
Parameters in all cases: key: 0 is no effect; 100 is complete control
B. signalgrass = conditions: PREEMERGENCE
Summary of the method: (§1)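 Injury scored visually on a 0–100 scale (100 = complete control) 13 to 21 days after treatment. Test chemicals, formulated with surfactant in non-phytotoxic solvent, were applied to soil within one day of planting, to plants at two to four leaves (three to twenty cm), or as directed spray at plant base.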

[1] = test system: Spanishneedles (Bidens bipinnata); conditions: PREEMERGENCE
Summary of the method: as §1

[2] = test system: alexandergrass (Brachiaria plantaginea); conditions: PREEMERGENCE
Summary of the method: as §1

[3] = test system: annual bluegrass (Poa annua); conditions: PREEMERGENCE
Summary of the method: as §1

[4] = test system: arrowleaf sida (Sida rhombifolia); conditions: PREEMERGENCE
Summary of the method: as §1

[5] = test system: common chickweed (Stellaria media); conditions: PREEMERGENCE
Summary of the method: as §1

[6] = test system: johnson grass (Sorghum halepense)
Summary of the method: as §1

[7] = test system: quackgrass (Agropyron repens); conditions: PREEMERGENCE
Summary of the method: as §1

[8] = test system: sandbur (Cenchrus echinatus); conditions: PREEMERGENCE
Summary of the method: as §1

[9] = test system: pitted morningglory (Ipomoea lacunosa); conditions: PREEMERGENCE
Summary of the method: as §1

Structure (SMILES) | Plant response rating, B. signalgrass (B. signalgrass; Rate 32 g/ha) | Plant response rating, B. signalgrass (B. signalgrass; Rate 64 g/ha) | Plant response rating, B. signalgrass (B. signalgrass; Rate 125 g/ha) | Plant response rating, B. signalgrass (B. signalgrass; Rate 250 g/ha) | Plant response rating, Spanishneedles ([1]; Rate 250 g/ha) | Plant response rating, Alexandergrass ([2]; Rate 125 g/ha) | Plant response rating, Alexandergrass ([2]; Rate 250 g/ha) | Plant response rating, A. bluegrass ([3]; Rate 32 g/ha) | Plant response rating, A. bluegrass ([3]; Rate 64 g/ha) | Plant response rating, A. bluegrass ([3]; Rate 125 g/ha) | Plant response rating, A. bluegrass ([3]; Rate 250 g/ha) | Plant response rating, Arrowleaf sida ([4]; Rate 32 g/ha) | Plant response rating, Arrowleaf sida ([4]; Rate 64 g/ha) | Plant response rating, Arrowleaf sida ([4]; Rate 125 g/ha) | Plant response rating, Arrowleaf sida ([4]; Rate 250 g/ha) | Plant response rating, Com. chickweed ([5]; Rate 32 g/ha) | Plant response rating, Com. chickweed ([5]; Rate 64 g/ha) | Plant response rating, Com. chickweed ([5]; Rate 125 g/ha) | Plant response rating, Com. chickweed ([5]; Rate 250 g/ha) | Plant response rating, Johnsongrass ([6]; PREEMERGENCE, Rate 250 g/ha) | further results
Cc1cnc(-c2ccc(C(F)(F)F)cc2)nc1Cc1cccc(OC(F)(F)F)c1 [Compound 15] | 35 | 60 | 95 | 98 | 100 | 100 | 100 | 100 | 100 | 100 | 100 | 65 | 50 | 100 | 100 | 65 | 85 | 98 | 100 | 100 | Plant response rating, Johnsongrass ([6]; POSTEMERGENCE, Rate 250 g/ha): 100; Plant response rating, Quackgrass ([7]; Rate 32 g/ha): 65; Plant response rating, Quackgrass ([7]; Rate 64 g/ha): 65; Plant response rating, Quackgrass ([7]; Rate 125 g/ha): 95; Plant response rating, Quackgrass ([7]; Rate 250 g/ha): 95; Plant response rating, Sandbur ([8]; Rate 250 g/ha): 100
Cc1cnc(-n2ccc(C(F)(F)F)n2)nc1Cc1cccc(C(F)(F)F)c1 [Example 2, 5-methyl-4-[[3-(trifluoromethyl)phenyl]methyl]-2-[3-(trifluoromethyl)-1H-pyrazol-1-yl]pyrimidine] | 65 | 100 | 100 | 100 | 100 | 100 | 100 | 80 | 100 | 100 | 100 | 98 | 100 | 100 | 100 | 100 | 100 | 100 | 100 | 100 | Plant response rating, Spanishneedles ([1]; Rate 64 g/ha): 100; Plant response rating, Spanishneedles ([1]; Rate 125 g/ha): 100; Plant response rating, Spanishneedles ([1]; Rate 500 g/ha): 100; Plant response rating, Alexandergrass ([2]; Rate 500 g/ha): 100; Plant response rating, Johnsongrass ([6]; PREEMERGENCE, Rate 500 g/ha): 100; Plant response rating, P. morninglory ([9]; Rate 32 g/ha): 100; Plant response rating, P. morninglory ([9]; Rate 64 g/ha): 100; Plant response rating, P. morninglory ([9]; Rate 125 g/ha): 100; Plant response rating, P. morninglory ([9]; Rate 250 g/ha): 100; Plant response rating, P. morninglory ([9]; Rate 500 g/ha): 100; Plant response rating, Quackgrass ([7]; Rate 32 g/ha): 20; Plant response rating, Quackgrass ([7]; Rate 64 g/ha): 90; Plant response rating, Quackgrass ([7]; Rate 125 g/ha): 100; Plant response rating, Quackgrass ([7]; Rate 250 g/ha): 100; Plant response rating, Sandbur ([8]; Rate 250 g/ha): 100; Plant response rating, Sandbur ([8]; Rate 500 g/ha): 100
